The values below come from patent US20230257396A1, “MACROCYCLES AND THEIR USE” (BLOSSOMHILL THERAPEUTICS, INC., priority 2020, published 2023).

Holding throughout (assay): KINOMEscan kinase binding assay (Eurofins/DiscoveRx), % Ctrl
Common to all, as to details: 1 μM

Assay [1] concerns the target T1, kinases (Homo sapiens, UniProt P00519, M351T).
T1 construct: purchased Eurofins/DiscoveRx; host or cells: E. coli BL21-derived host (T7 phage display) for most kinases; HEK-293 for the rest
The procedure: (§1) Kinase binding assays were performed at Eurofins/DiscoveRx using the general KINOMEscan Protocol (Fabian, M. A. et al., “A small molecule-kinase interaction map for clinical kinase inhibitors,” Nat. Biotechnol. 2005, 23(3):329-36). For most assays, kinase-tagged T7 phage strains were prepared in an E. coli host derived from the BL21 strain. E. coli were grown to log-phase and infected with T7 phage and incubated with shaking at 32° C. until lysis. The lysates were centrifuged and filtered to remove cell debris. The remaining kinases were produced in HEK-293 cells and subsequently tagged with DNA for qPCR detection. Streptavidin-coated magnetic beads were treated with biotinylated small molecule ligands for 30 minutes at room temperature to generate affinity resins for kinase assays. The liganded beads were blocked with excess biotin and washed with blocking buffer (SeaBlock (Pierce), 1% BSA, 0.05% Tween 20, 1 mM DTT) to remove unbound ligand and to reduce nonspecific binding. Binding reactions were assembled by combining kinases, liganded affinity beads, and test compounds in 1×binding buffer (20% SeaBlock, 0.17×PBS, 0.05% Tween 20, 6 mM DTT). All reactions were performed in polystyrene 96-well plates in a final volume of 0.135 mL. The assay plates were incubated at room temperature with shaking for 1 hour and the affinity beads were washed with washbuffer (1×PBS, 0.05% Tween 20). The beads were then re-suspended in elution buffer (1× PBS, 0.05% Tween 20, 0.5 μM non-biotinylated affinity ligand) and incubated at room temperature with shaking for 30 minutes. The kinase concentration in the eluates was measured by qPCR. Results for compounds tested in this assay at a given concentration are reported as “% Ctrl”, where lower numbers indicate stronger binding in the matrix.
(§2) (test compound signal-positive control signal)/(negative control signal-positive control signal) X100

Assay [2] deals with T2, kinases (Homo sapiens, UniProt P00533, L858R/T790M).
T2 construct: purchased Eurofins/DiscoveRx; host or cells: E. coli BL21-derived host (T7 phage display) for most kinases; HEK-293 for the rest
The procedure:
as §1, §2

Assay [3] deals with T3, kinases (Homo sapiens, UniProt P36888, D835Y).
T3 construct: purchased Eurofins/DiscoveRx; host or cells: E. coli BL21-derived host (T7 phage display) for most kinases; HEK-293 for the rest
T3 sequence (P36888 27-993 D835Y): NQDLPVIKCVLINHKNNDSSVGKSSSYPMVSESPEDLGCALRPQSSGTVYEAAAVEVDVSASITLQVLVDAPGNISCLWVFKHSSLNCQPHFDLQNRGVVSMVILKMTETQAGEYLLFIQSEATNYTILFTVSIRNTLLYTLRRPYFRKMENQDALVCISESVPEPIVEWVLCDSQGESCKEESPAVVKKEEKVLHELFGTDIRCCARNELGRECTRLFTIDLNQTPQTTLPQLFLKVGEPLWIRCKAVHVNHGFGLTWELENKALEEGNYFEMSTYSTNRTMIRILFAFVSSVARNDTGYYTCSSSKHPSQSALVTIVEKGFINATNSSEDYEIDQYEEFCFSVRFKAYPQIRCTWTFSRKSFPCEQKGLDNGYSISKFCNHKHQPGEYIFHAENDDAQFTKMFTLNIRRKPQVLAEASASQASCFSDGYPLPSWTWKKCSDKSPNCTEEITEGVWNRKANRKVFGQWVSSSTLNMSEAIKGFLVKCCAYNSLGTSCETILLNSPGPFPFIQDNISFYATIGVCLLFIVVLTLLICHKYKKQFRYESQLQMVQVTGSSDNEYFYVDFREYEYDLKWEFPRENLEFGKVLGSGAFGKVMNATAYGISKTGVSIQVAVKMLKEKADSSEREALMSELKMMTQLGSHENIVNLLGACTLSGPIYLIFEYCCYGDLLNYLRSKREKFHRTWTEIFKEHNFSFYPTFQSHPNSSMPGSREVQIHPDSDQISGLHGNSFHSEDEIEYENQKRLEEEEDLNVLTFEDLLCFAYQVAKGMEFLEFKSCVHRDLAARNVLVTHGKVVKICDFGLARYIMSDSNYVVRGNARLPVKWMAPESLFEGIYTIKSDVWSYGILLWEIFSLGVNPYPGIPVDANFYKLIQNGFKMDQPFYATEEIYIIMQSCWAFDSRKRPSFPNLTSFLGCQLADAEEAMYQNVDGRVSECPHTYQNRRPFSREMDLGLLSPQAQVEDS
The procedure: as §1, §2

In assay [4] the target is T4, kinases (Homo sapiens, UniProt P10721, T670I/V559D).
T4 construct: purchased Eurofins/DiscoveRx; host or cells: E. coli BL21-derived host (T7 phage display) for most kinases; HEK-293 for the rest
T4 sequence (P10721 26-976 V559D/T670I): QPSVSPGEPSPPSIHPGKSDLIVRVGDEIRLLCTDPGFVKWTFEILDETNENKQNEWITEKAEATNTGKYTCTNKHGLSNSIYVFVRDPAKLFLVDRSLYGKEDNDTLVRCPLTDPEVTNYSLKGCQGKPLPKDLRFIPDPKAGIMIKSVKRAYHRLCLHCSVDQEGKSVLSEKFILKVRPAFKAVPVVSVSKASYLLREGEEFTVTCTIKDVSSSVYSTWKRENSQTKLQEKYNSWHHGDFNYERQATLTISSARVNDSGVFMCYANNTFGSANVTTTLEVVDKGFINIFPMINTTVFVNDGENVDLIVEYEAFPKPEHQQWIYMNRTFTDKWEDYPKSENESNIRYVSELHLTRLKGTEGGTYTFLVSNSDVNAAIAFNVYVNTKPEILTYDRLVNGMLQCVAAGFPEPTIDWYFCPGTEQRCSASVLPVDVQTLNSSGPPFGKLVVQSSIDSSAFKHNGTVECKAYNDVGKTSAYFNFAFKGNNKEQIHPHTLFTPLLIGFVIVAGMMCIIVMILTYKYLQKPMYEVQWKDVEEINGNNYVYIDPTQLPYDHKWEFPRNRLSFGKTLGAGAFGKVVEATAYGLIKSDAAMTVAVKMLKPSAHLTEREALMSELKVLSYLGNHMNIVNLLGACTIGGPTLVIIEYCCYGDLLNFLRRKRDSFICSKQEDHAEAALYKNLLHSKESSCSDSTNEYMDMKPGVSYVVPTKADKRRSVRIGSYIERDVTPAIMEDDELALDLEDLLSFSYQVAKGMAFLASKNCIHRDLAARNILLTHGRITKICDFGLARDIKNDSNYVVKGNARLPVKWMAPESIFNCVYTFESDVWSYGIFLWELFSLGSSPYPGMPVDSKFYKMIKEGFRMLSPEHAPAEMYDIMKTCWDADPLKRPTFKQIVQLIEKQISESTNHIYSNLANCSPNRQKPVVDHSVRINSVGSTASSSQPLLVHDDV
The procedure:
as §1, §2

Assay [5] has as its target T5, kinases (Homo sapiens, UniProt P36888, K663Q).
T5 construct: purchased Eurofins/DiscoveRx; host or cells: E. coli BL21-derived host (T7 phage display) for most kinases; HEK-293 for the rest
T5 sequence (P36888 27-993 K663Q): T3 sequence (P36888 27-993 D835Y) with K637Q, Y809D
The procedure: as §1, §2

The target of assay [6] is T6, kinases (Homo sapiens, UniProt P07949).
T6 construct: purchased Eurofins/DiscoveRx; host or cells: E. coli BL21-derived host (T7 phage display) for most kinases; HEK-293 for the rest
T6 sequence (P07949 29-1114): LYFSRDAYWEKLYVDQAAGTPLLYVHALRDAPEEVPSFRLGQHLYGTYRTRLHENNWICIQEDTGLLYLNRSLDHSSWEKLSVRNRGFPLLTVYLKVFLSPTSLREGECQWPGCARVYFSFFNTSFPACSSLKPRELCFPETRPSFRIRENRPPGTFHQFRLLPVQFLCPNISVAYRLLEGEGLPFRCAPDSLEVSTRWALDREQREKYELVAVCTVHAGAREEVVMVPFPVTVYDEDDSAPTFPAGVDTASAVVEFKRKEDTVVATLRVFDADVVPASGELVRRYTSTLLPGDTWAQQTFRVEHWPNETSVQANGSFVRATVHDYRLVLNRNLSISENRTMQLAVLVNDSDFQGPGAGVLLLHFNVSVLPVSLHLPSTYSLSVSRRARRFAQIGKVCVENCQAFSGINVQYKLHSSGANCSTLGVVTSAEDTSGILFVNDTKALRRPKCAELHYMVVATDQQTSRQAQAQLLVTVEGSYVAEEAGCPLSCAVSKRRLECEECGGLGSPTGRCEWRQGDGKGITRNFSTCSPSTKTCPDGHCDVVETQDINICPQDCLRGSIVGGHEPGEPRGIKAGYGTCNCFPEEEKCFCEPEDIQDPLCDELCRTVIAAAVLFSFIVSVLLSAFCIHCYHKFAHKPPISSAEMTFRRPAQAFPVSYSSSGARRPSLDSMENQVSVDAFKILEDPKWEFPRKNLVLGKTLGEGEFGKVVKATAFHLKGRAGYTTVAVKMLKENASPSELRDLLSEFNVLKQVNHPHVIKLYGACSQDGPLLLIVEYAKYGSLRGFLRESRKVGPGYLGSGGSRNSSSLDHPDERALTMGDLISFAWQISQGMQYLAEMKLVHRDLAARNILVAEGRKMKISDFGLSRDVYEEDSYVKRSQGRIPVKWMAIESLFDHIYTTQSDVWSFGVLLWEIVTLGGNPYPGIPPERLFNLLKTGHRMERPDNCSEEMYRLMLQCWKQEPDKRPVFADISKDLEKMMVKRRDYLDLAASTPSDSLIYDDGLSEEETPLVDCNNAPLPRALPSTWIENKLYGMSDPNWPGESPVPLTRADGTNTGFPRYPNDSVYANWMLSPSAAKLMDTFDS
The procedure: as §1, §2

The mark [7] stands for this setting: target ABL1(M351T)-phosphorylated.

Substitutions are numbered along the chain they refer to.

With `Cc1cc2c([nH]1)/C=C1\C(=O)Nc3cc(Cl)c(cc31)OCCO[C@@H](C(=O)NC1CNC1)CN(C)C2=O` [Ex. 133, [7R,16a(17)Z]-N-(azetidin-3-yl)-19-chloro-2,5-dimethyl-4,16-dioxo-4,5,6,7,9,10,15,16-octahydro-1H-12,14-(ethanediylidene)dipyrrolo[3,2-i:3′,4′-l][1,4,7]dioxazacyclopentadecine-7-carboxamide], the “% Ctrl, ABL1(M351T)-phosphorylated” value on kinases [1] (ABL1(M351T)-phosphorylated) worked out at 58 % Ctrl. Moreover, the “% Ctrl, EGFR(L858R, T790M)” value on kinases [2] (EGFR(L858R, T790M)) worked out at 95 % Ctrl. Besides, the “% Ctrl, FLT3(D835Y)” value on kinases [3] (FLT3(D835Y)) is 3.1 % Ctrl. Besides, at kinases [4] (KIT(V559D, T670I)), the “% Ctrl, KIT(V559D, T670I)” value stood at 7.4 % Ctrl. For the same molecule, the “% Ctrl, FLT3(K663Q)” value on kinases [5] (FLT3(K663Q)) is given as 77 % Ctrl. In addition, the “% Ctrl, RET” value on kinases [6] (RET) is on record as 24 % Ctrl.

With `CN1CCOCCOc2cc3c(cc2Cl)NC(=O)/C3=C\c2[nH]ccc2C1=O` [Ex. 143, [16a(17)Z]-19-chloro-2,5-dimethyl-6,7,9,10-tetrahydro-1H-12,14-(ethanediylidene)dipyrrolo[3,2-i:3′,4′-l][1,4,7]oxathiazacyclopentadecine-4,16(5H,15H)-dione], the “% Ctrl, ABL1(M351T)-phosphorylated” value on kinases [1] (setting [7]) was 13 % Ctrl. In addition, on kinases [2] (target EGFR(L858R, T790M)), the “% Ctrl, EGFR(L858R, T790M)” value was determined as 75 % Ctrl. Besides, on kinases [3] (target FLT3(D835Y)), the “% Ctrl, FLT3(D835Y)” value was determined as 3.1 % Ctrl. On kinases [4] (target KIT(V559D, T670I)), the “% Ctrl, KIT(V559D, T670I)” value came to 1.6 % Ctrl. For the same molecule, the “% Ctrl, FLT3(K663Q)” value at kinases [5] (target FLT3(K663Q)) was found to be 11 % Ctrl. At kinases [6] (target RET), the “% Ctrl, RET” value amounted to 0.6 % Ctrl.

With `Cc1cc2c([nH]1)/C=C1\C(=O)Nc3ccc(cc31)OCCOCCN(C)C2=O` [Ex.91, [16a(17)Z]-2,5-dimethyl-6,7,9,10-tetrahydro-1H-12,14-(ethanediylidene)dipyrrolo[3,2-i:3′,4′-l][1,4,7]dioxazacyclopentadecine-4,16(5H,15H)-dione], at kinases [1] (ABL1(M351T)-phosphorylated), the “% Ctrl, ABL1(M351T)-phosphorylated” value stood at 8.5 % Ctrl. In addition, the “% Ctrl, EGFR(L858R, T790M)” value on kinases [2] (EGFR(L858R, T790M)) stood at 58 % Ctrl. Further, the “% Ctrl, FLT3(D835Y)” value on kinases [3] (FLT3(D835Y)) is given as 0.25 % Ctrl. Further, at kinases [4] (KIT(V559D, T670I)), the “% Ctrl, KIT(V559D, T670I)” value worked out at 34 % Ctrl. For the same molecule, the “% Ctrl, FLT3(K663Q)” value at kinases [5] (FLT3(K663Q)) is 63 % Ctrl. At kinases [6] (RET), the “% Ctrl, RET” value was 4.3 % Ctrl.

On to `Cc1cc2c([nH]1)/C=C1\C(=O)Nc3cc(Cl)c(cc31)OCCOCCN(C)C2=O` [Ex. 131, [16a(17)Z]-19-chloro-2,5-dimethyl-6,7,9,10-tetrahydro-1H-12,14-(ethanediylidene)dipyrrolo[3,2-i:3′,4′-l][1,4,7]dioxazacyclopentadecine-4,16(5H,15H)-dione], for which, on kinases [1] (ABL1(M351T)-phosphorylated), the “% Ctrl, ABL1(M351T)-phosphorylated” value is listed as 0.2 % Ctrl. The “% Ctrl, EGFR(L858R, T790M)” value at kinases [2] (EGFR(L858R, T790M)) turned out to be 35 % Ctrl. On kinases [3] (FLT3(D835Y)), the “% Ctrl, FLT3(D835Y)” value was 2.3 % Ctrl. In addition, at kinases [4] (KIT(V559D, T670I)), the “% Ctrl, KIT(V559D, T670I)” value is 0.05 % Ctrl. Besides, at kinases [5] (FLT3(K663Q)), the “% Ctrl, FLT3(K663Q)” value amounted to 7.4 % Ctrl. Moreover, the “% Ctrl, RET” value on kinases [6] (RET) is 0 % Ctrl.

With `Cc1nn(C)c2c1-c1ccc3c(c1)/C(=C/c1[nH]ccc1C(=O)N(C)CCCO2)C(=O)N3` [Ex. 150, [3a(4)Z]-9,14,16-trimethyl-10,11,13,14-tetrahydro-2H-1,17-(ethanediylidene)pyrazolo[4,3-m]dipyrrolo[3,2-f:3′,4′-i][1,4]oxazacyclopentadecine-3,8(5H,9H)-dione], the “% Ctrl, ABL1(M351T)-phosphorylated” value at kinases [1] (setting [7]) is 94 % Ctrl. Further, the “% Ctrl, EGFR(L858R, T790M)” value at kinases [2] (target EGFR(L858R, T790M)) was 83 % Ctrl. Also, at kinases [3] (target FLT3(D835Y)), the “% Ctrl, FLT3(D835Y)” value came out at 67 % Ctrl. Moreover, at kinases [4] (target KIT(V559D, T670I)), the “% Ctrl, KIT(V559D, T670I)” value is 97 % Ctrl. Moreover, the “% Ctrl, FLT3(K663Q)” value on kinases [5] (target FLT3(K663Q)) is given as 71 % Ctrl. Moreover, the “% Ctrl, RET” value on kinases [6] (target RET) came to 93 % Ctrl.

As to `Cc1cc2c([nH]1)/C=C1\C(=O)Nc3cnc(nc31)N(C)CCCOCCN(C)C2=O` [Ex.71, [17a(18)Z]-2,5,12-trimethyl-6,7,9,10,11,12-hexahydro-1H-13,15-(azenometheno)dipyrrolo[3,2-f:3′,4′-i][1,4,11,13]oxatriazacyclohexadecine-4,17(5H,16H)-dione], the “% Ctrl, ABL1(M351T)-phosphorylated” value at kinases [1] (ABL1(M351T)-phosphorylated) is 100 % Ctrl. Besides, the “% Ctrl, EGFR(L858R, T790M)” value on kinases [2] (EGFR(L858R, T790M)) came out at 100 % Ctrl. Further, on kinases [3] (FLT3(D835Y)), the “% Ctrl, FLT3(D835Y)” value is 94 % Ctrl. Besides, the “% Ctrl, KIT(V559D, T670I)” value on kinases [4] (KIT(V559D, T670I)) came out at 100 % Ctrl. Besides, the “% Ctrl, FLT3(K663Q)” value on kinases [5] (FLT3(K663Q)) stood at 84 % Ctrl. The “% Ctrl, RET” value at kinases [6] (RET) is recorded as 96 % Ctrl.

For `CNC(=O)[C@H]1CN(C)C(=O)c2cc(C)[nH]c2/C=C2\C(=O)Nc3cc(Cl)c(cc32)OCCO1` [Ex. 135, [7R,16a(17)Z]-19-chloro-N,2,5-trimethyl-4,16-dioxo-4,5,6,7,9,10,15,16-octahydro-1H-12,14-(ethanediylidene)dipyrrolo[3,2-i:3′,4′-l][1,4,7]dioxazacyclopentadecine-7-carboxamide], the “% Ctrl, ABL1(M351T)-phosphorylated” value on kinases [1] (ABL1(M351T)-phosphorylated) worked out at 48 % Ctrl. Besides, the “% Ctrl, EGFR(L858R, T790M)” value at kinases [2] (EGFR(L858R, T790M)) came to 93 % Ctrl. Besides, the “% Ctrl, FLT3(D835Y)” value at kinases [3] (FLT3(D835Y)) worked out at 13 % Ctrl. Also, the “% Ctrl, KIT(V559D, T670I)” value at kinases [4] (KIT(V559D, T670I)) was determined as 6.3 % Ctrl. In addition, at kinases [5] (FLT3(K663Q)), the “% Ctrl, FLT3(K663Q)” value amounted to 66 % Ctrl. Moreover, at kinases [6] (RET), the “% Ctrl, RET” value came out at 33 % Ctrl.
